# Read-outs that look alike come from different tables or passages of the source.
# Test system: Wheat and Barley and weed species
# Assay: Post-Emergent Test III: postemergent herbicidal activity in wheat and barley, visual rating after 21 d and probit GR20/GR50/GR80/GR90 (Tables 9-13)
# Format: in vivo
# Conditions: for pest or weed control at 17.5 g/ha / pest or weed control at 35 g/ha / pest or weed control at 70 g/ha: post-emergence, 504 h
# Summary of the method: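 Greenhouse plants (~18/17 °C, 14 h photoperiod) at second–third true leaf stage sprayed at 187 L/ha with a high rate and ½× to 1/16× serial dilutions. Visual injury 0–100% versus solvent-blank controls scored at 21 d; GR20, GR50, GR80 and GR90 derived by probit analysis across rates.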
compound,measurement,setting,value
COC(=O)c1nc(-c2cc3c(cc2F)OC(F)(F)O3)cc(N)c1Cl [Compound 32],GR50 ALOMY,"ALOMY black-grass (Alopecurus myosuroides), growth reduction of 50%, probit analysis",5 g ai/ha
same,GR80 ALOMY,"ALOMY black-grass (Alopecurus myosuroides), growth reduction of 80%, probit analysis",12 g ai/ha
same,GR90 ALOMY,"ALOMY black-grass (Alopecurus myosuroides), growth reduction of 90%, probit analysis",18 g ai/ha
same,Visual Growth Reduction (%) 21 Days After Application AVEFA,"AVEFA wild oat (Avena fatua), 17.5 g ai/ha",E (45-59)
same,Visual Growth Reduction (%) 21 Days After Application AVEFA,"AVEFA wild oat (Avena fatua), 35 g ai/ha",D (60-74)
same,Visual Growth Reduction (%) 21 Days After Application AVEFA,"AVEFA wild oat (Avena fatua), 70 g ai/ha",D (60-74)
same,GR50 AVEFA,"AVEFA wild oat (Avena fatua), growth reduction of 50%, probit analysis",31 g ai/ha
same,GR80 AVEFA,"AVEFA wild oat (Avena fatua), growth reduction of 80%, probit analysis",>70 g ai/ha
same,GR90 AVEFA,"AVEFA wild oat (Avena fatua), growth reduction of 90%, probit analysis",>70 g ai/ha
same,GR20 HORVS,"HORVS barley, spring (crop), growth reduction of 20%, probit analysis",3 g ai/ha
same,pest or weed control at 17.5 g/ha,"Hordeum vulgare, HORVS barley, spring (crop), 17.5 g ai/ha, read-out: Visual Growth Reduction (%) 21 Days After Application HORVS",45 to 59%
same,pest or weed control at 35 g/ha,"Hordeum vulgare, HORVS barley, spring (crop), 35 g ai/ha, read-out: Visual Growth Reduction (%) 21 Days After Application HORVS",60 to 74%
same,pest or weed control at 70 g/ha,"Hordeum vulgare, HORVS barley, spring (crop), 70 g ai/ha, read-out: Visual Growth Reduction (%) 21 Days After Application HORVS",60 to 74%
same,GR50 LOLSS,"LOLSS ryegrass, growth reduction of 50%, probit analysis",54 g ai/ha
same,GR80 LOLSS,"LOLSS ryegrass, growth reduction of 80%, probit analysis",>70 g ai/ha
same,GR90 LOLSS,"LOLSS ryegrass, growth reduction of 90%, probit analysis",>70 g ai/ha
same,Visual Growth Reduction (%) 21 Days After Application PHAMI,"PHAMI lesser canary grass (Phalaris minor), 17.5 g ai/ha",G (0-29)
same,Visual Growth Reduction (%) 21 Days After Application PHAMI,"PHAMI lesser canary grass (Phalaris minor), 35 g ai/ha",F (30-44)
same,Visual Growth Reduction (%) 21 Days After Application PHAMI,"PHAMI lesser canary grass (Phalaris minor), 70 g ai/ha",E (45-59)
same,GR50 PHAMI,"PHAMI lesser canary grass (Phalaris minor), growth reduction of 50%, probit analysis",65 g ai/ha
same,GR80 PHAMI,"PHAMI lesser canary grass (Phalaris minor), growth reduction of 80%, probit analysis",>70 g ai/ha
same,GR90 PHAMI,"PHAMI lesser canary grass (Phalaris minor), growth reduction of 90%, probit analysis",>70 g ai/ha
same,GR20 TRZAS,"TRZAS wheat, spring (crop), growth reduction of 20%, probit analysis",1 g ai/ha
same,pest or weed control at 17.5 g/ha,"Triticum aestivum, TRZAS wheat, spring (crop), 17.5 g ai/ha, read-out: Visual Growth Reduction (%) 21 Days After Application TRZAS",60 to 74%
same,pest or weed control at 35 g/ha,"Triticum aestivum, TRZAS wheat, spring (crop), 35 g ai/ha, read-out: Visual Growth Reduction (%) 21 Days After Application TRZAS",60 to 74%
same,pest or weed control at 70 g/ha,"Triticum aestivum, TRZAS wheat, spring (crop), 70 g ai/ha, read-out: Visual Growth Reduction (%) 21 Days After Application TRZAS",75 to 84%
same,pest or weed control at 17.5 g/ha,"ALOMY black-grass (Alopecurus myosuroides), 17.5 g ai/ha, read-out: Visual Growth Reduction (%) 21 Days After Application ALOMY",85 to 94%
same,pest or weed control at 35 g/ha,"ALOMY black-grass (Alopecurus myosuroides), 35 g ai/ha, read-out: Visual Growth Reduction (%) 21 Days After Application ALOMY",95 to 100%
same,pest or weed control at 70 g/ha,"ALOMY black-grass (Alopecurus myosuroides), 70 g ai/ha, read-out: Visual Growth Reduction (%) 21 Days After Application ALOMY",95 to 100%
same,pest or weed control at 17.5 g/ha,"LOLSS ryegrass, 17.5 g ai/ha, read-out: Visual Growth Reduction (%) 21 Days After Application LOLSS",0 to 29%
same,pest or weed control at 35 g/ha,"LOLSS ryegrass, 35 g ai/ha, read-out: Visual Growth Reduction (%) 21 Days After Application LOLSS",30 to 44%
same,pest or weed control at 70 g/ha,"LOLSS ryegrass, 70 g ai/ha, read-out: Visual Growth Reduction (%) 21 Days After Application LOLSS",60 to 74%

# — US9149038B2, “4-amino-6-(heterocyclic)picolinates and 6-amino-2-(heterocyclic)pyrimidine-4-carboxylates and their use as herbicides” (Dow AgroSciences LLC, priority 2013, dated 2015)
